Results as given in patent publication US9512107B2, “Therapeutically active compositions and their methods of use” (Agios Pharmaceuticals, Inc., priority 2012, dated 2016).
Where a chain is given by its changes, count along the chain named. pIC50: −log10 of the molar value.

Key:
IDH2 R140Q = target: T1, IDH2 R140Q (Homo sapiens, UniProt P48735, R140Q); experiment: IDH2 R140Q enzymatic assay (cofactor depletion, similar format); assay type: biochemical; conditions: read-out: Enz R140Q
T1 sequence (P48735 40-452 R140Q): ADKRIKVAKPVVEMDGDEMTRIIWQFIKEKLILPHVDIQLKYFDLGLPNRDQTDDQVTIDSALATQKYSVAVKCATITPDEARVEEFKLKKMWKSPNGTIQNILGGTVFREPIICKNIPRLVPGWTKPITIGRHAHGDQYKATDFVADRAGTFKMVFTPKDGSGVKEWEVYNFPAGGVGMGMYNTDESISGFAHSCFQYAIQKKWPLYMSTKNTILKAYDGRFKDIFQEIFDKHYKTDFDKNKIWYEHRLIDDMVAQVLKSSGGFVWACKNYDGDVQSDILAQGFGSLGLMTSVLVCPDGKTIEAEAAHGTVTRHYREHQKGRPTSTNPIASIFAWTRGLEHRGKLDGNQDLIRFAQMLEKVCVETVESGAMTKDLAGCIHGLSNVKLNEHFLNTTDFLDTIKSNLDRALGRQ

[1] = tested on: U87MG pLVX-IDH2 R140Q-neo cells; experiment: U87MG pLVX-IDH2 R140Q-neo cell based assay, 2-HG in media by LC-MS at 48 hours; conditions: Homo sapiens, U-87 MG
How it was run: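 2-HG secreted into the medium was measured by LC-MS after 48 h of compound treatment (0.2% DMSO final) of U87MG pLVX-IDH2 R140Q-neo cells in DMEM/10% FBS. The same wells were assayed at 72 h by CellTiter-Glo luminescence for effects on growth.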

IDH2 R172K = target: T2, IDH2 R172K (Homo sapiens, UniProt P48735, R172K); experiment: IDH2 R172K enzymatic assay (NADPH cofactor depletion, diaphorase/resazurin readout); assay type: biochemical; conditions: read-out: Enz R172K
T2 sequence (P48735 40-452 R172K): T1 sequence (P48735 40-452 R140Q) with Q101R, R133K
Method: Compounds are assayed for IDH2 R172K inhibitory activity through a cofactor depletion assay. […] The reaction is terminated by the addition of a second enzyme, diaphorase, and a corresponding substrate, resazurin. Diaphorase reduces resazurin to the highly fluorescent resorufin with the concomitant oxidation of NADPH to NADP, both halting the IDH2 reaction by depleting the available cofactor pool and facilitating quantitation of the amount of cofactor remaining after a specific time period through quantitative production of an easily detected fluorophore.
The test compound is then incubated for one hour at room temperature with the enzyme; before starting the IDH2 reaction with the addition of 10 μl of substrate mix containing 50 μM NADPH and 6.3 mM α-KG in the buffer described above. After a further one hour of incubation at room temperature, the reaction is halted and the remaining NADPH measured through conversion of resazurin to resorufin by the addition of 25 μl Stop Mix (36 μg/ml diaphorase enzyme and 60 μM resazurin; in buffer).

Structure (SMILES) | pIC50 (IDH2 R140Q) | pIC50 [1] | pIC50 (IDH2 R172K)
CC(C)Nc1nc(Nc2cc(F)cc(F)c2)nc(-c2nccc(N)n2)n1 [Compound 458, 6-(4-Amino-pyrimidin-2-yl)-N-(3,5-difluoro-phenyl)-N′-isopropyl-[1,3,5]triazine-2,4-diamine] | 6.00 to 7.00 | > 7.00 | 6.00 to 7.00
CC(C)(O)CNc1nc(Nc2ccnc(F)c2)nc(-c2ccccc2F)n1 [Compound 623, 1-(4-(2-fluorophenyl)-6-(2-fluoropyridin-4-ylamino)-1,3,5-triazin-2-ylamino)-2-methylpropan-2-ol] | 6.00 to 7.00 | 6.00 to 7.00 | 5.00 to 6.00
CC(C)(C)Nc1nc(Nc2cc(Cl)cc(S(C)(=O)=O)c2)nc(-c2cccc(C(C)(F)F)n2)n1 [Compound 615, N2-(tert-butyl)-N4-(3-chloro-5-(methylsulfonyl)phenyl)-6-(6-(1,1-difluoroethyl)pyridin-2-yl)-1,3,5-triazine-2,4-diamine] | 6.00 to 7.00 | > 7.00 | 6.00 to 7.00
CC(F)(F)c1cccc(-c2nc(NCC3CC3)nc(Nc3ccnc(C4(C#N)CC4)c3)n2)n1 [Compound 619, 1-(4-((4-((cyclopropylmethyl)amino)-6-(6-(1,1-difluoroethyl)pyridin-2-yl)-1,3,5-triazin-2-yl)amino)pyridin-2-yl)cyclopropanecarbonitrile] | 6.00 to 7.00 | > 7.00 | > 7.00
CC(C)Nc1nc(Nc2ccccc2)nc(-c2ncccc2Cl)n1 [Compound 230, 6-(3-chloropyridin-2-yl)-N^2-isopropyl-N^4-phenyl-1,3,5-triazine-2,4-diamine] | 6.00 to 7.00 | 6.00 to 7.00 | 6.00 to 7.00
CC(C)Nc1nc(Nc2cc(F)cc(F)c2)nc(-c2cnc(N)nc2)n1 [Compound 649, 6-(2-aminopyrimidin-5-yl)-N2-(3,5-difluorophenyl)-N4-isopropyl-1,3,5-triazine-2,4-diamine] | > 7.00 | 6.00 to 7.00 | 6.00 to 7.00
CC(C)Nc1nc(Nc2ccccc2)nc(-c2cccc(S(C)(=O)=O)c2)n1 [Compound 151] | 6.00 to 7.00 | 6.00 to 7.00 | 6.00 to 7.00
Fc1cc(F)cc(Nc2nc(NCC3CC3)nc(-c3cccc(C(F)(F)F)n3)n2)c1 [Compound 598, N2-(cyclopropylmethyl)-N4-(3,5-difluorophenyl)-6-(6-(trifluoromethyl)pyridin-2-yl)-1,3,5-triazine-2,4-diamine] | 6.00 to 7.00 | > 7.00 | > 7.00
Fc1cncc(Nc2nc(NC3C4COCC43)nc(-c3cccc(Cl)n3)n2)c1 (stereo not drawn) [Compound 511, 6-(6-Chloro-pyridin-2-yl)-N-(5-fluoro-pyridin-3-yl)-N′-(3-oxa-bicyclo[3.1.0]hex-6-yl)-[1,3,5]triazine-2,4-diamine] | 6.00 to 7.00 | > 7.00 | 6.00 to 7.00
c1ccc(-c2nc(Nc3ccncc3)nc(NC3CCC3)n2)cc1 [Compound 188, N^2-cyclobutyl-6-phenyl-N^4-(pyridin-4-yl)-1,3,5-triazine-2,4-diamine] | > 7.00 | > 7.00 | 6.00 to 7.00
CC(C)Nc1nc(Nc2cc(F)cc(F)c2)nc(-c2cc(O)cc(O)c2)n1 [Compound 642, 5-(4-((3,5-difluorophenyl)amino)-6-(isopropylamino)-1,3,5-triazin-2-yl)benzene-1,3-diol] | 6.00 to 7.00 | > 7.00 | > 7.00
CC(F)(F)c1cc(Nc2nc(NCC3CC3)nc(-c3cccc(C(C)(F)F)n3)n2)ccn1 [Compound 610, N2-(cyclopropylmethyl)-6-(6-(1,1-difluoroethyl)pyridin-2-yl)-N4-(2-(1,1-difluoroethyl)pyridin-4-yl)-1,3,5-triazine-2,4-diamine] | 6.00 to 7.00 | > 7.00 | > 7.00
CC(C)Nc1nc(Nc2cncc(C(F)(F)F)c2)nc(-c2cccc(C(F)(F)F)n2)n1 [Compound 386, N^2-isopropyl-6-(6-(trifluoromethyl)pyridin-2-yl)-N^4-(5-(trifluoromethyl)pyridin-3-yl)-1,3,5-triazine-2,4-diamine] | 6.00 to 7.00 | > 7.00 | > 7.00
CC(C)Nc1nc(Nc2ccc(Cl)cc2)nc(-c2ccccc2)n1 [Compound 143] | > 7.00 | 6.00 to 7.00 | 6.00 to 7.00
FC(F)(F)c1cc(Nc2nc(NC3CCOCC3)nc(-c3cccc(C(F)(F)F)n3)n2)ccn1 [Compound 587, N2-(tetrahydro-2H-pyran-4-yl)-6-(6-(trifluoromethyl)pyridin-2-yl)-N4-(2-(trifluoromethyl)pyridin-4-yl)-1,3,5-triazine-2,4-diamine] | 6.00 to 7.00 | > 7.00 | > 7.00
CC(C)Nc1nc(Nc2cccc(S(=O)(=O)NCC3CC3)c2)nc(-c2cccc(Cl)n2)n1 [Compound 497, 3-[4-(6-Chloro-pyridin-2-yl)-6-isopropylamino-[1,3,5]triazin-2-ylamino]-N-cyclopropylmethyl-benzenesulfonamide] | 6.00 to 7.00 | > 7.00 | 6.00 to 7.00
CC(C)(CO)CNc1nc(Nc2ccnc(Cl)c2)nc(-c2ccccc2)n1 [Compound 261] | > 7.00 | > 7.00 | 6.00 to 7.00
Cc1ccccc1-c1nc(Nc2ccccc2)nc(NC(C)C)n1 [Compound 123] | > 7.00 | 6.00 to 7.00 | 6.00 to 7.00
COc1ccc(F)c(-c2nc(Nc3ccnc(C(F)(F)F)c3)nc(NC3COC3)n2)c1 [Compound 635, 6-(2-Fluoro-5-methoxy-phenyl)-N-oxetan-3-yl-N′-(2-trifluoromethyl-pyridin-4-yl)-[1,3,5]triazine-2,4-diamine] | 6.00 to 7.00 | 6.00 to 7.00 | 6.00 to 7.00
CC(C)(O)CNc1nc(Nc2cc(F)cc(F)c2)nc(-c2cccc(C(C)(F)F)n2)n1 [Compound 560, 1-[4-[6-(1,1-Difluoro-ethyl)-pyridin-2-yl]-6-(3,5-difluoro-phenylamino)-[1,3,5]triazin-2-ylamino]-2-methyl-propan-2-ol] | 6.00 to 7.00 | > 7.00 | > 7.00
CC(F)(F)c1cccc(-c2nc(NCC3CC3)nc(Nc3ccnc(C(C)(C)C#N)c3)n2)n1 [Compound 618, (4-((4-((cyclopropylmethyl)amino)-6-(6-(1,1-difluoroethyl)pyridin-2-yl)-1,3,5-triazin-2-yl)amino)pyridin-2-yl)-2-methylpropanenitrile] | 6.00 to 7.00 | > 7.00 | > 7.00
Cc1cc(Nc2nc(NC(=O)C(C)(C)C)nc(-c3ccccc3)n2)ccn1 [Compound 350] | 6.00 to 7.00 | 6.00 to 7.00 | 5.00 to 6.00
CC(C)Nc1nc(Nc2cc(F)cc(F)c2)nc(-c2cccc(C(F)(F)F)n2)n1 [Compound 603, N2-(3,5-difluorophenyl)-N4-isopropyl-6-(6-(trifluoromethyl)pyridin-2-yl)-1,3,5-triazine-2,4-diamine] | 6.00 to 7.00 | > 7.00 | > 7.00
c1ccc(Nc2nc(NCc3ccccn3)nc(-c3ccccc3)n2)cc1 [Compound 135] | 6.00 to 7.00 | 5.00 to 6.00 | < 5.00
CCCCNc1nc(Nc2ccnc(Cl)c2)nc(-c2ccccc2)n1 [Compound 260] | > 7.00 | > 7.00 | > 7.00
CCOC(=O)Nc1nc(Nc2ccccc2)nc(-c2ccccc2)n1 [Compound 181, ethyl 4-phenyl-6-(phenylamino)-1,3,5-triazin-2-ylcarbamate] | > 7.00 | > 7.00 | 6.00 to 7.00
COc1cccc(-c2nc(Nc3ccccc3)nc(NC(C)C)n2)c1 [Compound 115] | > 7.00 | 6.00 to 7.00 | 6.00 to 7.00
